These are literature values, as cited in paper PMC10485003, “Antibiotic hyper-resistance in a class I aminoacyl-tRNA synthetase with altered active site signature motif” (Nature Communications, 2023).

The series concerns IleRS. More on the design: method as in PMID 18234501. The note with it: monic acid A alone, without the nonanoic acid part; cited from earlier work.

With `CC(=CC(=O)O)CC1OCC(CC2OC2C(C)C(C)O)C(O)C1O` (stereo not shown) [monic acid A], the inhibitor activity result is on record as “cannot act as an inhibitor”.
